Molecular target: T1, Human-alpha thrombin (Homo sapiens, UniProt P00734)
T1 construct: Human-alpha thrombin and its well-known aptamers, HD1
Assay: Covalent conjugation of oxanine-containing aptamer to thrombin, conversion rate over time (SDS-PAGE/electrophoresis)
Type: biochemical
Conditions: thrombin 1.25 μM, HEPES pH 8.4, 37° C., FIG. 3
Description: Human-alpha thrombin and its well-known aptamers, HD1 (15-mer length of aptamer that binds to exosite I of thrombin; 5′-[…]-3′; SEQ ID NO: 1) and HD2 (29-mer length of aptamer that binds to exosite II of thrombin; 5′-[…]-3′; SEQ ID NO: 2) were used. Each aptamer labeled with fluorescent dye at 5′-terminus and 10 dOTPs at 3′-terminus was prepared (See Example 1-1) and mixed with thrombin. Specifically, thrombin (1.25 μM), NaCl (100 mM), MgCl2 (5 mM), KCl (5 mM), Tween-20 (0.01% v/v), and oxanine-inserted HD1 (1 equiv. relative to thrombin) and HD2 (2 equiv. relative to thrombin) in HEPES (50 mM pH 8.4) were mixed at 37° C. for 1 day.
Whether the aptamer brings oxanine close to the amine group of the target protein, enabling proximity-enhanced covalent bond formation, was monitored with SDS-PAGE (protein bands) and electrophoresis (DNA bands). As a comparison group, aptamers HD1 and HD2 without oxanine introduced, or random DNA (not aptamer) with oxanine introduced, were used, and an untreated control group without any treatment with thrombin was also used for comparison.

Substance	time to reach 50% modification rate (conversion of aptamer to aptamer-thrombin conjugate) [h]
HD22: 29-mer thrombin exosite II aptamer 5′-AGTCCGTGGTAGGGCAGGTTGGGGTGACT-3′ with fluorescent dye at 5′-terminus and 10 dOTPs (oxanine) at 3′-terminus (DNA, backbone not given here; 5' fluorescent dye, 3' tail of ten oxanine deoxynucleotides)	≤ 1.68
HD1: 15-mer thrombin exosite I aptamer 5′-GGTTGGTGTGGTTGG-3′ with fluorescent dye at 5′-terminus and 10 dOTPs (oxanine) at 3′-terminus (DNA, backbone not given here; 5' fluorescent dye, 3' tail of ten oxanine deoxynucleotides)	≤ 0.21
